In publication PMC8991199, “Promiscuity mapping of the S100 protein family using a high-throughput holdup assay” (Scientific Reports, 2022):

Legend:
Format in all cases: binding
S100B = target: T1, S100B (Homo sapiens, UniProt P04271); experiment: direct fluorescence polarization (FP), S100B; conditions: 50 nM labeled foldamer, 20 mM HEPES pH 7.5, 150 mM NaCl, 1 mM CaCl2, 0.5 mM TCEP, 0.01% Tween20, quadratic fit, mean ± SEM, three technical repeats, threshold 1 mM
T1 sequence (P04271 1-92): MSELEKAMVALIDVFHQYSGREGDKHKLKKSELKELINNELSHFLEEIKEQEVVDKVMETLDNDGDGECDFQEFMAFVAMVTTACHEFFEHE
Method: (§1) HTP (and also low-throughput) measurements generally need to be validated by an orthogonal approach to eliminate experimental artifacts. […] This way, we chose WL, IF, WW, YF, IL, VL, TW, RF, RR, TI, TM, and after resynthesizing with a fluorescent label at the C-terminus (Figs. S15–S26, Table S1), the S100ome was tested against the labeled foldamers by direct fluorescence polarization (FP) (Fig. 3A). In this assay, the association of the fluorescently labeled foldamer and the S100 protein of interest is monitored, through the change in polarization of the emitted light by the fluorophore upon the binding event. In direct FP, the presence of the fluorophore might change the binding affinity of some foldamers. […] Nevertheless, we assumed that the fluorophore would affect all foldamers that target the same binding site to the same degree, because the foldamer scaffold is rigid. Defining the threshold of detection at the dissociation constant of 1 mM, we identified 87 interactions between the selected foldamer fragments and the S100ome out of 220 possible interactions (Table 1, Fig. S4-14).
(§2) Briefly, S100 proteins were cloned into a modified pET15b vector with a TEV protease cleavable N-terminal His6-tag and expressed in Escherichia coli BL21 (DE3) cells, followed by Ni^2+-affinity chromatography. For HU assay, S100 proteins were further purified by either hydrophobic interaction chromatography or ion exchange chromatography without the cleavage of the N-terminal His6-tag applying standard conditions. For direct FP measurements, the N-terminal His6-tag was cleaved, and the S100 proteins were purified by hydrophobic interaction chromatography, ion exchange chromatography or size exclusion chromatography. The quality of the recombinant proteins was checked by SDS-PAGE analysis in all cases. The concentration of the recombinant S100 proteins was determined by UV spectrophotometry using the absorbance of Tyr and Trp residues.
(§3) In direct fluorescence polarization assays, S100 proteins were diluted in a buffer containing 50 nM labeled foldamer, 20 mM HEPES pH 7.5, 150 mM NaCl, 1 mM CaCl2, 0.5 mM TCEP and 0.01% Tween20. The dilution series (50 µl) were divided into three technical repeats and transferred (15 µl) to a 384-well microplate. In competitive fluorescence polarization assays, the buffer applied in direct measurements was supplemented with the S100 protein of interest to reach a saturation of 60–80%. This mixture was titrated with the competitor (i.e. the unlabeled peptide). Fluorescence polarization was measured in 8 different S100 concentrations (one of which contained no S100 protein) on a Synergy H4 plate reader using 485 ± 20 nm and 528 ± 20 nm band-pass filters for excitation and emission, respectively. The Kd values were obtained by fitting the data from the FP measurements with the python-based ProFit software using quadratic and competitive binding equation for direct and competitive FP, respectively. The detection threshold was based on two parameters. First, we rejected all fitted dissociation constants above 1 mM.

S100A4 = S100A4 (Homo sapiens, UniProt P26447); experiment: direct fluorescence polarization (FP), S100A4; conditions: S100A4, 50 nM labeled foldamer, 20 mM HEPES pH 7.5, 150 mM NaCl, 1 mM CaCl2, 0.5 mM TCEP, 0.01% Tween20, quadratic fit, mean ± SEM, three technical repeats, threshold 1 mM
S100A4, sequence (P26447 whole entry): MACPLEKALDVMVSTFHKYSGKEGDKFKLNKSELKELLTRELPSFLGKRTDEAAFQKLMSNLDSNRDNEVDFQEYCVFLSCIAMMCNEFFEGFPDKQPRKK
Text: (§4) HTP (and also low-throughput) measurements generally need to be validated by an orthogonal approach to eliminate experimental artifacts. […] In this assay, the association of the fluorescently labeled foldamer and the S100 protein of interest is monitored, through the change in polarization of the emitted light by the fluorophore upon the binding event. In direct FP, the presence of the fluorophore might change the binding affinity of some foldamers. […] Nevertheless, we assumed that the fluorophore would affect all foldamers that target the same binding site to the same degree, because the foldamer scaffold is rigid.
as §2, §3

S100A11 = target: T2, S100A11 (Homo sapiens, UniProt P31949); experiment: direct fluorescence polarization (FP), S100A11; conditions: S100A11, 50 nM labeled foldamer, 20 mM HEPES pH 7.5, 150 mM NaCl, 1 mM CaCl2, 0.5 mM TCEP, 0.01% Tween20, quadratic fit, mean ± SEM, three technical repeats, threshold 1 mM
T2 sequence (P31949 1-105): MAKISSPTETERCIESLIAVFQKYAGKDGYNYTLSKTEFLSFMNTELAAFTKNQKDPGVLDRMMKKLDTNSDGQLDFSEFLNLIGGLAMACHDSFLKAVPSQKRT
Method: as §1, §2, §3

S100A15 = target: T3, S100A15 (Homo sapiens, UniProt Q86SG5); experiment: direct fluorescence polarization (FP), S100A15; conditions: S100A15, 50 nM labeled foldamer, 20 mM HEPES pH 7.5, 150 mM NaCl, 1 mM CaCl2, 0.5 mM TCEP, 0.01% Tween20, quadratic fit, mean ± SEM, three technical repeats, threshold 1 mM
T3 sequence (Q86SG5 1-101): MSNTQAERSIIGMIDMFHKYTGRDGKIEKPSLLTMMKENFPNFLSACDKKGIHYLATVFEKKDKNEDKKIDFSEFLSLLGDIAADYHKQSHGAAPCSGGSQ
Method: as §1, §2, §3

S100A2 = S100A2 (Homo sapiens, UniProt P29034); experiment: direct fluorescence polarization (FP), S100A2; conditions: S100A2, 50 nM labeled foldamer, 20 mM HEPES pH 7.5, 150 mM NaCl, 1 mM CaCl2, 0.5 mM TCEP, 0.01% Tween20, quadratic fit, mean ± SEM, three technical repeats, threshold 1 mM
S100A2, sequence (P29034 whole entry): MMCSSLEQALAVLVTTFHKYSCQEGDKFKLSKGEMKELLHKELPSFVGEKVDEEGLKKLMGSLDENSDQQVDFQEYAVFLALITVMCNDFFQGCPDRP
Text: as §4, §2, §3

S100A10 = S100A10 (Homo sapiens, UniProt P60903); experiment: direct fluorescence polarization (FP), S100A10; conditions: S100A10, 50 nM labeled foldamer, 20 mM HEPES pH 7.5, 150 mM NaCl, 1 mM CaCl2, 0.5 mM TCEP, 0.01% Tween20, quadratic fit, mean ± SEM, three technical repeats, threshold 1 mM
S100A10, sequence (P60903 whole entry): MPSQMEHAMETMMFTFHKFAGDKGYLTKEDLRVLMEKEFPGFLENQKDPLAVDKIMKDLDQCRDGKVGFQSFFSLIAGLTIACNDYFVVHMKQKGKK
Text: as §4, §2, §3

S100P = target: T4, S100P (Homo sapiens, UniProt P25815); experiment: direct fluorescence polarization (FP), S100P; conditions: 50 nM labeled foldamer, 20 mM HEPES pH 7.5, 150 mM NaCl, 1 mM CaCl2, 0.5 mM TCEP, 0.01% Tween20, quadratic fit, mean ± SEM, three technical repeats, threshold 1 mM
T4 sequence (P25815 1-95): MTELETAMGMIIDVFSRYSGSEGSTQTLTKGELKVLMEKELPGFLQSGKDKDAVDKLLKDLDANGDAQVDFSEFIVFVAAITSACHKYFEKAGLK
Text: as §4, §2, §3

| SMILES | Kd (S100B) [µM] | Kd (S100A4) [µM] | Kd (S100A11) [µM] | Kd (S100A15) [µM] | Kd (S100A2) [µM] | Kd (S100A10) [µM] | Kd (S100P) [µM] |
| --- | --- | --- | --- | --- | --- | --- | --- |
| CC[C@H](C)[C@@H](CC(=O)N[C@H]1CCCC[C@@H]1C(=O)N[C@H]1CCCC[C@@H]1C(=O)N[C@H](CC(=O)N[C@H]1CCCC[C@@H]1C(=O)NCC(=O)N[C@@H](CCCCNC(=O)c1ccc2c(c1)C1(OC2=O)c2ccc(O)cc2Oc2cc(O)ccc21)C(N)=O)Cc1ccccc1)NC(=O)[C@H]1CCCC[C@@H]1N [fIF] | 140 ± 7.9 | 93 ± 2.4 | 280 ± 15 | > 1000 | 38 ± 1.5 | 97 ± 2.5 | 140 ± 5.8 |
| CC[C@H](C)[C@@H](CC(=O)N[C@H]1CCCC[C@@H]1C(=O)N[C@H]1CCCC[C@@H]1C(=O)N[C@H](CC(=O)N[C@H]1CCCC[C@@H]1C(=O)NCC(=O)N[C@@H](CCCCNC(=O)c1ccc2c(c1)C1(OC2=O)c2ccc(O)cc2Oc2cc(O)ccc21)C(N)=O)CC(C)C)NC(=O)[C@H]1CCCC[C@@H]1N [fIL] | 63 ± 4.4 | 150 ± 4.8 | > 1000 | > 1000 | 78 ± 8.7 | 72 ± 1.6 | 330 ± 92 |
| N=C(N)NCCC[C@@H](CC(=O)N[C@H]1CCCC[C@@H]1C(=O)N[C@H]1CCCC[C@@H]1C(=O)N[C@H](CC(=O)N[C@H]1CCCC[C@@H]1C(=O)NCC(=O)N[C@@H](CCCCNC(=O)c1ccc2c(c1)C1(OC2=O)c2ccc(O)cc2Oc2cc(O)ccc21)C(N)=O)Cc1ccccc1)NC(=O)[C@H]1CCCC[C@@H]1N [fRF] | 230 ± 5.9 | 460 ± 23 | 998 ± 217 | > 1000 | 340 ± 21 | 320 ± 19 | 190 ± 17 |
| N=C(N)NCCC[C@@H](CC(=O)N[C@H]1CCCC[C@@H]1C(=O)NCC(=O)N[C@@H](CCCCNC(=O)c1ccc2c(c1)C1(OC2=O)c2ccc(O)cc2Oc2cc(O)ccc21)C(N)=O)NC(=O)[C@H]1CCCC[C@@H]1NC(=O)[C@H]1CCCC[C@@H]1NC(=O)C[C@H](CCCNC(=N)N)NC(=O)[C@H]1CCCC[C@@H]1N [fRR] | 210 ± 26 | > 1000 | > 1000 | > 1000 | 61 ± 5.5 | > 1000 | > 1000 |
| CC[C@H](C)[C@@H](CC(=O)N[C@H]1CCCC[C@@H]1C(=O)NCC(=O)N[C@@H](CCCCNC(=O)c1ccc2c(c1)C1(OC2=O)c2ccc(O)cc2Oc2cc(O)ccc21)C(N)=O)NC(=O)[C@H]1CCCC[C@@H]1NC(=O)[C@H]1CCCC[C@@H]1NC(=O)C[C@@H](NC(=O)[C@H]1CCCC[C@@H]1N)[C@@H](C)O [fTI] | > 1000 | > 1000 | > 1000 | > 1000 | > 1000 | > 1000 | > 1000 |
| CSCC[C@@H](CC(=O)N[C@H]1CCCC[C@@H]1C(=O)NCC(=O)N[C@@H](CCCCNC(=O)c1ccc2c(c1)C1(OC2=O)c2ccc(O)cc2Oc2cc(O)ccc21)C(N)=O)NC(=O)[C@H]1CCCC[C@@H]1NC(=O)[C@H]1CCCC[C@@H]1NC(=O)C[C@@H](NC(=O)[C@H]1CCCC[C@@H]1N)[C@@H](C)O [fTM] | > 1000 | > 1000 | > 1000 | > 1000 | > 1000 | > 1000 | > 1000 |
| C[C@@H](O)[C@@H](CC(=O)N[C@H]1CCCC[C@@H]1C(=O)N[C@H]1CCCC[C@@H]1C(=O)N[C@H](CC(=O)N[C@H]1CCCC[C@@H]1C(=O)NCC(=O)N[C@@H](CCCCNC(=O)c1ccc2c(c1)C1(OC2=O)c2ccc(O)cc2Oc2cc(O)ccc21)C(N)=O)Cc1c[nH]c2ccccc12)NC(=O)[C@H]1CCCC[C@@H]1N [fTW] | 280 ± 17 | 180 ± 46 | 570 ± 68 | > 1000 |  |  |  |
| CC(C)C[C@@H](CC(=O)N[C@H]1CCCC[C@@H]1C(=O)NCC(=O)N[C@@H](CCCCNC(=O)c1ccc2c(c1)C1(OC2=O)c2ccc(O)cc2Oc2cc(O)ccc21)C(N)=O)NC(=O)[C@H]1CCCC[C@@H]1NC(=O)[C@H]1CCCC[C@@H]1NC(=O)C[C@@H](NC(=O)[C@H]1CCCC[C@@H]1N)C(C)C [fVL] | 50 ± 6.4 | 210 ± 8.7 | > 1000 | > 1000 | 210 ± 110 | 110 ± 5.5 | > 1000 |
| CC(C)C[C@@H](CC(=O)N[C@H]1CCCC[C@@H]1C(=O)NCC(=O)N[C@@H](CCCCNC(=O)c1ccc2c(c1)C1(OC2=O)c2ccc(O)cc2Oc2cc(O)ccc21)C(N)=O)NC(=O)[C@H]1CCCC[C@@H]1NC(=O)[C@H]1CCCC[C@@H]1NC(=O)C[C@H](Cc1c[nH]c2ccccc12)NC(=O)[C@H]1CCCC[C@@H]1N [fWL] | 11 ± 0.81 | 46 ± 1.6 | > 1000 | 39 ± 2.4 | 11 ± 0.39 | 23 ± 0.7 | 75 ± 5.8 |
| NC(=O)[C@H](CCCCNC(=O)c1ccc2c(c1)C1(OC2=O)c2ccc(O)cc2Oc2cc(O)ccc21)NC(=O)CNC(=O)[C@H]1CCCC[C@@H]1NC(=O)C[C@H](Cc1c[nH]c2ccccc12)NC(=O)[C@H]1CCCC[C@@H]1NC(=O)[C@H]1CCCC[C@@H]1NC(=O)C[C@H](Cc1c[nH]c2ccccc12)NC(=O)[C@H]1CCCC[C@@H]1N [fWW] | > 1000 |  | > 1000 | > 1000 | 65 ± 1.2 | 150 ± 5.2 | 190 ± 6.9 |
